Key:
[1] = tested on: Mammalian cell line L292 and MEF cell lines; assay: MTT assay cytotoxicity (survival analysis); format: cell-based, human; conditions: 100 μg/mL, 24 hours, 570 nm absorbance
Method: Mammalian cell line L292 and MEF cell lines were cultured in Dulbecco's modified Eagle culture medium, wherein the culture medium was added with 100 μg/mL streptomycin, 100 U/mL penicillin and 10% (v/v) fetal bovine serum, and then the cell lines were cultured the in 5% CO2 containing humidified incubator under 37° C.
MTT assay was used for investigating the cytotoxicity of compound on mammalian cells. The cells were cultured at 96-well tray with 100 μL culture medium for 24 hours after sterilization, then the cells were cultured in the diluted culture medium for 24 hours. 3-(4,5-dimethylthiazol-2yl)-2,5-diphenyltetrazolium bromide (MTT) was added into each well of 96-well tray and incubated for 4 hours. The cell suspension was removed and 100 μL dimethyl sulfoxide was added for dissolving all the precipitate. Enzyme immunoassay instrument was used for measure the 570 nm absorbance.

human red blood cells = assay: Hemolytic test; format: cell-based; conditions: at 100 μg/ml; human red blood cells 2% (V/V), 37° C., 1 hour, O.D. 490 nm
Method: Fresh human red blood cells were washed by 0.9% physiological saline for three times, then were dissolved into 2% (V/V) physiological saline, and 50 μL red blood cells suspension and 50 μL of the compound (10, 50 and 100 μg/ml of antibiotic Fmoc-Ala-OPfp) and Triton X-100 was added into the 96-well tray, wherein the final concentration of red blood cells was 2% (V/V). The sample was slightly shaking in the incubator under 37° C. for 1 hour and centrifuged with 2000 g for 30 minutes. 50 μL sample suspension was dropped into a new 96-well tray and the O.D. 490 nm absorbance was measured. The physiological saline and Triton X-100 was negative control group and positive control group, respectively.

Staphylococcus aureus = assay: Antibiotics activity test (bacteria concentration OD630 over time); format: cell-based; conditions: 1 μg/ml Fmoc-Ala-OPfp in culture medium, 8 hours after bacterial inoculation, 37° C.; compared with ampicillin and vancomycin
Method: The bacteria were cultured for antibiotics activity test. (FIG. 3) The cultured cells were added with specific concentration of Fmoc-Ala-OPfp, Ampicillin and Vancomycin as experimental group, and the cultured cells were not added with any drugs as control group, and the same amount of Staphylococcus aureus colonies were added then cultured in an incubator under 37° C. The different time of bacteria concentrations (OD630) were tested to investigate the antibiotic inhibitory effect of Fmoc-Ala-OPfp, Ampicillin and Vancomycin.
Only a small amount (1 μg/ml) of Fmoc-Ala-OPfp was added in the culture medium.

SMILES: C[C@H](NC(=O)OCC1c2ccccc2-c2ccccc21)C(=O)Oc1c(F)c(F)c(F)c(F)c1F [Fmoc-Ala-OPfp, N-(9-fluorenylmethoxycarbonyl)-L-alanine pentafluorophenyl]
- cell toxicity on MTT assay [1]: 10-20%
- hemolytic activity (human red blood cells): low hemolytic activity
- antibiotic effect (inhibition of bacteria growth, OD630) (Staphylococcus aureus): equivalent to 5.3 μg/ml of ampicillin and 5.3 μg/ml vancomycin

Source: patent publication US10076508B2, “Pharmaceutical compositions for inhibiting antibiotic-resistant microorganisms and uses thereof” (Peptide Cham Biotech Co., Ltd., priority 2015, dated 2018)
